# Measurements taken from patent US9018381B2, “Chemical compounds” (AstraZeneca AB, priority 2010, dated 2015).
# Columns and labels:
# Bcl-2 = Bcl-2 (Homo sapiens (Human), UniProt P10415); experiment: Bcl-2 FP assay (fluorescence polarization competitive binding); conditions: c-terminal 6×HIS tagged Bcl-2 (aa 1-204), FITC-Bim BH-3 peptide tracer
# Description: (§1) Bcl-xL and Bcl-2 FP binding affinity of compound(s) of Formulae (I), (I-a), (I-b), (I-c), (I-d) and/or (I-e) may be determined using a variety of known methods. One such assay is a sensitive and quantitative in vitro binding assay using fluorescence polarization (“FP”) described by Wang, J.-L.; Zhang, Z-J.; Choksi, S.; Sjam. S.; Lu, Z.; Croce, C. M.; Alnemri, E. S.; Komgold, R.; Huang, Z. Cell permeable Bcl-2 binding peptides: a chemical approach to apoptosis induction in tumor cells. Cancer Res. 2000, 60, 1498-1502).
# (§2) Additionally, the binding affinity of compound(s) of Formulae (I), (I-a), (I-b), (I-c), (I-d) and/or (I-e) to Bcl-2 protein in vitro was determined by a competitive binding assay based on fluorescence polarization. For example, fluorescence polarization (“FP”) assays may be developed using a c-terminal 6×HIS tagged Bcl-2 (aa 1-204) and a C-terminal 6×HIS tagged Bcl-XL (aa 1-209). […] Dilutions of either Bcl-2 (1.3 nM) or Bcl-XL (0.8 nM) may be added to serial dilutions of antagonist and incubated for one hour prior to the addition of 2 nM of fluorescent peptide tracer (Anaspec, Fremont, Calif.) in the assay buffer. Final assay buffer conditions may be 20 mM HEPES, pH 7.5, 1 mM DTT, 0.005% Tween-20 and 50 mM NaCl. Samples may be read after 20-minute incubation. Fluorescence polarization values may be plotted as a function of the antagonist concentration.
# Bcl-XL = Bcl-XL (Homo sapiens (Human), UniProt Q07817); experiment: Bcl-XL FP assay (fluorescence polarization competitive binding); conditions: C-terminal 6×HIS tagged Bcl-XL (aa 1-209), FITC-Bim BH-3 peptide tracer
# Description: as §1, §2
# Bcl-2, sequence (P10415 1-204): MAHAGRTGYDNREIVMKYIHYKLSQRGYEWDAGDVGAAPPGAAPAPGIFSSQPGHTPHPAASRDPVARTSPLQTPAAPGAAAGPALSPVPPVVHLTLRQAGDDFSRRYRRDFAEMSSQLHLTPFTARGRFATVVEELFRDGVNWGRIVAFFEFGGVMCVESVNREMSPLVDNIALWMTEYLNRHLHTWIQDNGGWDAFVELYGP
# Bcl-XL, sequence (Q07817 1-209): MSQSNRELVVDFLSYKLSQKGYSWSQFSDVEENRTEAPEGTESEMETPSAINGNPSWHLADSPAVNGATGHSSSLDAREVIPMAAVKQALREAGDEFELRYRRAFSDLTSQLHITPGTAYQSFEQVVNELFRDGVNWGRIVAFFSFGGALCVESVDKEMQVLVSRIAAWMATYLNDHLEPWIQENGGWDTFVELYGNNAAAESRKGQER
smiles,measurement,setting,value
"O=C(NS(=O)(=O)c1ccc(N[C@H](CCN2CCN(C[C@H](O)CF)CC2)CSc2ccccc2)c(S(=O)(=O)C(F)(F)F)c1)c1ccc(N2CCC([C@@H](O)c3ccccc3-c3ccc(Cl)cc3)CC2)cc1 (single isomer, unassigned) [Example 6]",IC50,Bcl-2,1 nM
same,IC50,Bcl-XL,2 nM
